Biological target: T1, mouse FPR2 (Mus musculus, UniProt O88536)
T1 construct: expressed in transfected cells; host or cells: HEK 293
T1 sequence (O88536 1-351): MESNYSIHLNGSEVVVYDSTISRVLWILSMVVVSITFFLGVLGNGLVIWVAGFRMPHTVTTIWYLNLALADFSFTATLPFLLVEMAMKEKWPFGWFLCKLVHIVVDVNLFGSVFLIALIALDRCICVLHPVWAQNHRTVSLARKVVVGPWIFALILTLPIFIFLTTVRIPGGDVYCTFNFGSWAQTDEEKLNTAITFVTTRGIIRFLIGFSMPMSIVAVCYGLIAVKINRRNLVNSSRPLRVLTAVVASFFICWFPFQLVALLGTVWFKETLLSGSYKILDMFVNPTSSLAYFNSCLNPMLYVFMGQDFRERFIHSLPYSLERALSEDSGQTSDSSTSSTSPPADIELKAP
Test: Calcium flux in FPR2-transfected HEK 293 cells
Assay type: cell-based
Settings: 250 ng/ml pertussis toxin for 4 h
From the text: Cell Lines. Construction of human embryonic kidney (HEK) 293 cell lines expressing human formylpeptide receptor (FPR), human formylpeptide receptor-like 1 receptor (FPRL1R), mouse FPR, mouse FPR2, mouse lipoxin A4 receptor (encoded by Fpr-rs1), a mouse orphan receptor encoded by Fpr-rs3, and human CCR5 and CX3CR1 has been previously described (Hartt J. K. et al. 1999 J Exp Med 190:741-747; Combadiere C. et al. 1996 J Leukocyte Biol 60:147-152; Combadiere C. et al. 1998 J Biol Chem 273:23799-23804; Gao J.-L. et al. 1998 Genomics 51:270-276). Fpr-rs1 and Fpr-rs3 were tested because of their high structural similarity to the known formylpeptide receptors and because they are also expressed in phagocytes (Gao J.-L. et al. 1998 Genomics 51:270-276). […]
Calcium Flux Analysis. […] Data were recorded every 200 ms as the relative ratio of fluorescence emitted at 510 nm following sequential excitation at 340 and 380 nm. The following ligands were evaluated: Aβ (nonfibrillated, human residues 1-42; California Peptide Research; Napa, Calif.), fMet-Leu-Phe (fMLF; Sigma), ATP (Life Technologies), and the chemokines RANTES (regulated upon activation normal T-cell expressed and secreted), SDF-1 (stromal cell-derived factor-1), 1-309, fractalkine, MIP-1α (macrophage inflammatory protein-1α), and KC (Peprotech, Rocky Hill, N.J.). […]

## pertussis toxin
  effect of pretreatment on Aβ calcium flux signaling: completely blocked

— patent publication US20050130890A1, “Amyloid beta is a ligand for FPR class receptors” (priority 2001, published 2005)
